According to patent US20030216471A1, “Retinoid formulations for aerosolization and inhalation” (priority 2003, published 2003):
Several values for one entry are separate records, joined by “and”; a condition that tells them apart may be missing. Identical values can stand only once.

Test system: TGase II
Test: TGase II assay of rat lung tissue after inhaled 13-cis RA (experiment B)
Assay type: in vivo
Description: Male rats (n=23) (Sprague-Dawley from Charles River) were divided into six experimental groups and were given varying amounts of 13-cis RA through an inhalant apparatus once daily for different times each day for 14 days. The experimental groups were as follows (Table 1): 1. Vehicle control: rats (3) inhaled vehicle for 240 minutes; 2. Low dose 13-cis RA: rats (4) inhaled a solution containing 13-cis RA at a concentration of 62.2 μg/liter (inhaled dose 115.0 μg/kg body weight) in 5 minutes; 3. Low-Middle dose 13-cis RA: rats (4) inhaled a solution containing 13-cis RA at a concentration of 62.2 μg/liter (inhaled dose 334.4 μg/kg body weight) in 15 minutes; 4.Middle dose 13-cis RA: rats (4) inhaled a solution containing 13-cis RA at a concentration of 62.2 μg/liter (inhaled dose 1012.3 μg/kg body weight) in 45 minutes; 5. Middle-High dose 13-cis RA: rats (4) inhaled a solution containing 13-cis RA at a concentration of 62.2 μg/liter (inhaled dose 2843.4 μg/kg body weight) in 120 minutes; 6. High dose 13-cis RA:rats (4) inhaled a solution containing 13-cis RA at a concentration of 62.2 μg/liter (inhaled dose 5935.6 μg/kg body weight) in 240 minutes.
Enzyme assay mixtures were prepared by adding 80 μl of SUBSTRATE mixture (322.8 μl H2O, 120 μl 0.5M NaBorate, 60 μl 0.01M EDTA, 60 μl 0.1M CaCl2, 6 μl 1M DTT, 240 μl dimethyl casein, 30 μl Triton X-100, 1.21 μl [^3H]-Putrescine, 120 μl Putrescine) to 20 μl sample, 20 μl scraping buffer for blank control, 20 μl (18 μl scraping buffer+2 μl TGase II) for positive control. Samples were mixed in 15 ml tubes, the tubes were shaken before putting them into a 28° C. water bath for 30 minutes. Reactions were slowed down in an ice bath. 80 μl of the incubation mixture was adsorbed onto paper disks. These were immediately dropped into cold 10% TCA (0.1% Putrescine) and washed with agitation for 7 minutes, followed by 2 additional washes with 5% TCA (0.05% putrescine) for 5-7 minutes, and once more with cold (−20° C.) 95% ethanol for 5 minutes. Paper disks were dried and placed into 5 ml Aquasol, and counted in a Liquid Scintillation Counter. Protein concentration determination was conducted by the Bradford method.
Cannon (Cannon et al., 1983).

CC1=C(/C=C/C(C)=C/C=C/C(C)=C\C(=O)O)C(C)(C)CCC1 [13-cis RA, 13-cis-Retinoic Acid]
TGase II assay, rat lung (High dose, 240 min daily, 14 days): 8053 DPM/μg protein | TGase II assay, rat lung (High dose: 1872 μg/kg total deposited, 240 min daily, 14 days): 0.1025+/−0.004 picomoles/μg protein/30 min and 0.1025 ± 0.004 picomoles/μg protein/30 min | TGase II assay, rat lung (Low dose, 5 min daily, 14 days, vehicle 3535): 7503 DPM/μg protein | TGase II assay, rat lung (Low dose: 39 μg/kg total deposited, 5 min daily, 14 days, vehicle 0.0450): 0.0955+/−0.004 picomoles/μg protein/30 min and 0.0955 ± 0.004 picomoles/μg protein/30 min | TGase II assay, rat lung (Low-Middle dose, 15 min daily, 14 days): 9035 DPM/μg protein | TGase II assay, rat lung (Low-Middle dose: 117 μg/kg total deposited, 15 min daily, 14 days): 0.1150+/−0.006 picomoles/μg protein/30 min and 0.1150 ± 0.006 picomoles/μg protein/30 min | TGase II assay, rat lung (Middle dose, 45 min daily, 14 days): 10449 DPM/μg protein | TGase II assay, rat lung (Middle dose: 351 μg/kg total deposited, 45 min daily, 14 days): 0.1330+/−0.009 picomoles/μg protein/30 min and 0.1330 ± 0.009 picomoles/μg protein/30 min | TGase II assay, rat lung (Middle-High dose, 120 min daily, 14 days): 8014 DPM/μg protein | TGase II assay, rat lung (Middle-High dose: 936 μg/kg total deposited, 120 min daily, 14 days): 0.1020+/−0.005 picomoles/μg protein/30 min and 0.1020 ± 0.005 picomoles/μg protein/30 min | stimulation of lung TGase activity (maximum, inhaled dose 1012.3 μg/kg (45 minutes of inhalation), 14 days): 2.9 Fold | stimulation of lung TGase activity (with larger amounts of inhaled retinoid): 1.2 fold
